Data published in patent US20260293949A1, “CARBONATION SENSATION IMPARTING OR ENHANCING AGENT” (TAKASAGO INTERNATIONAL CORPORATION, priority 2022, published 2026).
“Also recorded” adds a separate entry of the source.

Assays:
[1] = Sensory evaluation of fizziness enhancement in beer-flavored beverage; format: in vivo; settings: for Fizziness enhancement evaluation result: beer-flavored beverage, average score of seven panelists, 1 to 5
Protocol: (§1) In the following Examples, the action and effect were verified using a value obtained by calculating an average score of scores for imparting or enhancing fizziness by sensory evaluation conducted by specialized panelists. The expression “1 point” in the evaluation is the evaluation in the case where no component is added at all (no addition).
Diethyl sebacate was separately added to “Asahi Dry Zero (registered trademark) (manufactured by Asahi Breweries, Ltd.)” so as to reach the concentrations shown in Table 8 below, and sensory evaluation was performed by seven specialized panelists to determine the extent to which fizziness was enhanced as compared with a control in which diethyl sebacate was not added.

human TRPA1 = molecular target: T1, human TRPA1 (Homo sapiens, UniProt O75762); test: Evaluation of human TRPA1 activity in stably expressing cells (Fluo 4-AM calcium fluorescence); format: cell-based; settings: human TRPA1 stably expressing Flp-In 293 cells; fluorescence 485/525 nm, 27° C.
T1 construct: doxycycline-inducible Flp-In T-REx 293 cells; Fluo-4 calcium assay
T1 sequence (O75762 whole entry): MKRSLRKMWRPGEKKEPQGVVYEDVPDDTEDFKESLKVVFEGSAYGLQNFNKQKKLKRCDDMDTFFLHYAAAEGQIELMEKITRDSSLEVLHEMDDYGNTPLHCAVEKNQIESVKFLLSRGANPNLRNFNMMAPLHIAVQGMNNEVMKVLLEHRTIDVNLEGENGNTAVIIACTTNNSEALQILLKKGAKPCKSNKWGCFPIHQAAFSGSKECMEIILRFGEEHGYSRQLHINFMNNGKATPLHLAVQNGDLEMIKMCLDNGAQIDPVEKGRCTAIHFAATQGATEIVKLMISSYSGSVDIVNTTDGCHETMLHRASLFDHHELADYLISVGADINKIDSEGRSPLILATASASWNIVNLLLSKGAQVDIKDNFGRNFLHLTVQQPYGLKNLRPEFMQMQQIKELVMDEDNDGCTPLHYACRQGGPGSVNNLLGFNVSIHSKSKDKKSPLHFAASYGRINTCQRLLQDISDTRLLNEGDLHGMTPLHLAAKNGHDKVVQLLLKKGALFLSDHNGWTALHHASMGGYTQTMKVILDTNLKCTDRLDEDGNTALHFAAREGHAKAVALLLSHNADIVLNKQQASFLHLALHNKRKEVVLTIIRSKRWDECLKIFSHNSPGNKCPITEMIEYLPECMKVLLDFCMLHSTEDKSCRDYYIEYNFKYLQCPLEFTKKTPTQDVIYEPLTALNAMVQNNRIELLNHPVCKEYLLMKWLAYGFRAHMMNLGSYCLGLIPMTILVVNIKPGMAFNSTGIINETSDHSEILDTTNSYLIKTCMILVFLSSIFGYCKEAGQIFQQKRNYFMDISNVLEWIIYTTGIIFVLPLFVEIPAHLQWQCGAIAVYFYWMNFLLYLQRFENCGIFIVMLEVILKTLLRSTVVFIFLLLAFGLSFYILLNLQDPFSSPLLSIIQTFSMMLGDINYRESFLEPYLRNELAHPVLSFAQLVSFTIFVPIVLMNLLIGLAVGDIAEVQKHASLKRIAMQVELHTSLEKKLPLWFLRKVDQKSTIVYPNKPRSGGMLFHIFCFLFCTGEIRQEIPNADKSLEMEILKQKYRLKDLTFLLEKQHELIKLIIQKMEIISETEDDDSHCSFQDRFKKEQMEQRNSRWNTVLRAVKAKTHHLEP
From the text: The full-length human TRPA1 gene (GenBank Accession Number: NM_007332) was amplified from plasmid pFN21AB7348 (manufactured by Kazusa DNA Research Institute), and the full-length human TRPV1 gene (GenBank Accession Number: NM_018727) was amplified from pFN21AE2418 (manufactured by Kazusa DNA Research Institute) using PCR. The obtained PCR product was subcloned into pcDNA5/FRT/TO (manufactured by ThermoFisher Scientific), and then introduced into Flp-In 293 cells (manufactured by Thermo Fisher Scientific) using a Flp-In T-REX system (manufactured by Thermo Fisher Scientific) to prepare a human TRPA1 stably expressing cell line and a human TRPV1 stably expressing cell line […]
After replacing the culture medium with buffer solution, fluorescent calcium indicator Fluo 4-AM (manufactured by Dojindo Laboratories) was added and incubated at 37° C. for 1 hour. After replacing the culture solution with buffer solution again, the microplate was set to a fluorescence microplate reader FlexStation 3 (manufactured by Molecular Devices, LLC.). Diethyl sebacate was added at various concentrations at an internal temperature of 27° C., and the fluorescence intensity at a wavelength of 525 nm when excited at a wavelength of 485 nm was measured. […]

[2] = Sensory evaluation of carbonation sensation imparting in grape-flavored mouthwash; format: in vivo; settings: for Carbonation sensation imparting evaluation result: grape-flavored mouthwash, average score of five panelists, 1 to 5
Protocol: as §1
(§2) Diethyl sebacate was separately added to grape-flavored mouthwash prepared according to the formulation shown in Table 18 so as to reach a concentration shown in Table 19 below, and sensory evaluation was performed by five panelists to determine the extent to which fizziness was imparted as compared with a control in which diethyl sebacate was not added.

[3] = Sensory evaluation of carbonation sensation imparting in cider-flavored frozen dessert; format: in vivo; settings: for Carbonation sensation imparting evaluation result: average score of seven panelists, 1 to 5
Protocol: as §1
as §2, with “a cider-flavored frozen dessert” for “grape-flavored mouthwash”, “16” for “18”, “17” for “19”, “seven” for “five”

[4] = Sensory evaluation of carbonation sensation imparting in black tea beverage with fruit juice; format: in vivo; settings: for Carbonation sensation imparting evaluation result: average score of seven panelists
Protocol: as §1
Diethyl sebacate was separately added to “Afternoon Tea Apple Tea Plus (registered trademark) (manufactured by Kirin Beverage Co., Ltd.)” so as to reach the concentrations shown in Table 9 below, and sensory evaluation was performed by seven specialized panelists to determine the extent to which fizziness was imparted as compared with a control in which diethyl sebacate was not added.

[5] = Sensory evaluation of carbonation sensation imparting in cola-flavored compressed tablet candy; format: in vivo; settings: for Carbonation sensation imparting evaluation result: compressed tablet candy, average score of six panelists, 1 to 5
Protocol: as §1
as §2, with “a cola-flavored compressed tablet candy” for “grape-flavored mouthwash”, “14 using a pestle with a diameter of 7 mm,” for “18”, “15” for “19”, “six” for “five”

[6] = Sensory evaluation of fizziness enhancement in cider-flavored carbonated beverage; format: in vivo; settings: for Fizziness enhancement evaluation result: average score of seven panelists, 1 to 5
Protocol: as §1
Diethyl sebacate was separately added to “Mitsuya Cider (registered trademark) Zero Strong (manufactured by Asahi Soft Drinks Co., Ltd.)” so as to reach the concentrations shown in Table 6 below, and sensory evaluation was performed by seven specialized panelists to determine the extent to which fizziness was enhanced as compared with a control in which diethyl sebacate was not added.

[7] = carbonated beer-flavored beverage

In the case of `CCOC(=O)CCCCCCCCC(=O)OCC` [Diethyl sebacate, diethyl sebacate], the “Fizziness enhancement evaluation result” value ([1]; 0.1 ppm) is reported as 1.1 points, the “Fizziness enhancement evaluation result” value ([1]; 0.3 ppm) is reported as 1.6 points and the “Fizziness enhancement evaluation result” value ([1]; 1 ppm) is reported as 2.7 points. For the same compound, the “Fizziness enhancement evaluation result” value ([1]; 5 ppm) was 2.9 points, the “Fizziness enhancement evaluation result” value ([1]; 10 ppm) was 2.7 points and the “Fizziness enhancement evaluation result” value ([1]; 20 ppm) was 2.7 points. For the same compound, the “Fizziness enhancement evaluation result” value ([1]; 50 ppm) was 1.9 points, the “Fizziness enhancement evaluation result” value ([1]; 100 ppm) was 1.1 points and the “amelioration of mouthfeel (in words)” value [1, 7] was “effect of ameliorating the mouthfeel was also confirmed”. The “fizziness enhancement (in words)” value [1, 7] was “fizziness of the carbonated beer-flavored beverage can be enhanced”, the TRPA1 activity (human TRPA1) was “high TRPA1 activity; also recorded: respond” and the “Carbonation sensation imparting evaluation result” value ([2]; 0.1 ppm) was 1.8 points. The “Carbonation sensation imparting evaluation result” value ([2]; 1 ppm) was 2.2 points, the “Carbonation sensation imparting evaluation result” value ([2]; 5 ppm) was 2.8 points and the “Carbonation sensation imparting evaluation result” value ([2]; 10 ppm) was 3.4 points. The “Carbonation sensation imparting evaluation result” value ([2]; 50 ppm) was 4.0 points, the “Carbonation sensation imparting evaluation result” value ([2]; 100 ppm) was 3.8 points and the “Carbonation sensation imparting evaluation result” value ([2]; 500 ppm) was 3.0 points. For the same compound, the “amelioration of mouthfeel (in words)” value ([2]; mouthwash) was “effect of ameliorating the mouthfeel was also confirmed”, the “fizziness imparting (in words)” value ([2]; mouthwash) was “fizziness can be imparted to the mouthwash” and the “amelioration of mouthfeel (in words)” value [3] was “effect of ameliorating the mouthfeel was also confirmed”. The “fizziness imparting (in words)” value [3] was “fizziness can be imparted to the cider-flavored frozen dessert”, the “Carbonation sensation imparting evaluation result” value ([3]; 0.1 ppm) was 1.4 points and the “Carbonation sensation imparting evaluation result” value ([3]; 0.3 ppm) was 1.9 points. For the same compound, the “Carbonation sensation imparting evaluation result” value ([3]; 1 ppm) was 2.1 points, the “Carbonation sensation imparting evaluation result” value ([3]; 5 ppm) was 3.6 points and the “Carbonation sensation imparting evaluation result” value ([3]; 10 ppm) was 4.5 points. The “Carbonation sensation imparting evaluation result” value ([3]; 20 ppm) was 3.6 points, the “Carbonation sensation imparting evaluation result” value ([3]; 50 ppm) was 2.7 points and the “Carbonation sensation imparting evaluation result” value ([3]; 100 ppm) was 1.4 points. For the same compound, the “amelioration of mouthfeel (in words)” value [4] was “effect of ameliorating the mouthfeel was also confirmed”, the “Carbonation sensation imparting evaluation result” value ([4]; 0.1 ppm, 1 (almost no fizziness) to 5 (extremely imparted)) was 1.1 points and the “Carbonation sensation imparting evaluation result” value ([4]; 0.3 ppm, 1 to 5) was 1.3 points. The “Carbonation sensation imparting evaluation result” value ([4]; 1 ppm, 1 to 5) was 1.9 points, the “Carbonation sensation imparting evaluation result” value ([4]; 5 ppm, 1 to 5) was 2.7 points and the “Carbonation sensation imparting evaluation result” value ([4]; 10 ppm, 1 to 5) was 2.9 points. The “Carbonation sensation imparting evaluation result” value ([4]; 20 ppm, 1 to 5) was 1.7 points, the “Carbonation sensation imparting evaluation result” value ([4]; 50 ppm, 1 to 5) was 1.7 points and the “Carbonation sensation imparting evaluation result” value ([4]; 100 ppm, 1 to 5) was 1.1 points. For the same compound, the “fizziness imparting (in words)” value ([4]; contains no carbon dioxide) was “fizziness can be imparted to a black tea beverage with fruit juice”, the “Carbonation sensation imparting evaluation result” value ([5]; 0.1 ppm) was 1.5 points and the “Carbonation sensation imparting evaluation result” value ([5]; 1 ppm) was 2.2 points. The “Carbonation sensation imparting evaluation result” value ([5]; 10 ppm) was 2.5 points, the “Carbonation sensation imparting evaluation result” value ([5]; 100 ppm) was 4.0 points and the “Carbonation sensation imparting evaluation result” value ([5]; 1000 ppm) was 3.0 points. For the same compound, the “Carbonation sensation imparting evaluation result” value ([5]; 10000 ppm) was 1.5 points, the “Carbonation sensation imparting evaluation result” value ([5]; 20000 ppm) was 1.2 points and the “amelioration of mouthfeel (in words)” value ([5]; compressed tablet candies) was “effect of ameliorating the mouthfeel was also confirmed”. For the same compound, the “fizziness imparting (in words)” value ([5]; compressed tablet candies) was “fizziness can be imparted to compressed tablet candies”, the “amelioration of mouthfeel (in words)” value [6] was “effect of ameliorating the mouthfeel was also confirmed” and the “fizziness enhancement (in words)” value [6] was “fizziness of the cider-flavored carbonated beverage can be enhanced”. For the same compound, the “Fizziness enhancement evaluation result” value ([6]; 0.1 ppm) was 1.3 points, the “Fizziness enhancement evaluation result” value ([6]; 0.3 ppm) was 1.9 points and the “Fizziness enhancement evaluation result” value ([6]; 1 ppm) was 3.7 points. The “Fizziness enhancement evaluation result” value ([6]; 5 ppm) was 3.9 points, the “Fizziness enhancement evaluation result” value ([6]; 10 ppm) was 3.7 points and the “Fizziness enhancement evaluation result” value ([6]; 20 ppm) was 3.6 points. For the same compound, the “Fizziness enhancement evaluation result” value ([6]; 50 ppm) was 3.3 points and the “Fizziness enhancement evaluation result” value ([6]; 100 ppm) was 1.1 points.
